Several values for one entry are separate records, joined by “and”; a condition that tells them apart may be missing. Equal entries are not always repeated.
What was measured:
[1] = tested on: IFNAR1 surface levels in THP-1 cells; assay: THP-1 IFNAR1 surface levels (FACS); format: cell-based, human
[2] = tested on: ISG expression in SSc PBMCs; assay: SSc PBMC type I IFN signaling gene expression array, unstimulated; format: cell-based, human
Protocol: PBMCs in vitro experiments
Peripheral blood mononuclear cells (PBMCs) from healthy and SSc donors were separated using density gradient method (Leucosep™, Greiner Bio-One International) from EDTA anticoagulated peripheral blood; isolated cells were washed twice by PBS. PBMCs were then incubated in RPMI1640 […]
For healthy PBMCs, cells were stimulated with 20 ng/mL of IFN (+/- compounds or DMSO). For SSc PBMCs, cells were in basal conditions with no additional IFN stimulation. Cells were centrifuged at 300 g for 10 minutes. […]
RNA was extracted from cell pellets using TRIzol™ (ThermoFisher
Scientific, Waltham, MA) and processed using Quick-RNA Miniprep Kit (Zymo Research) as per the manufacturer’s instruction.
For Type I IFN signalling analysis, the human IFN I RT2 Profiler PCR Array (Qiagen, PAMM-016ZE) was performed on available RNA from healthy (n=3) and SSc (n=9) donors. RNA was converted to cDNA using RT2 First Strand Kit (Qiagen). Next, the cDNA was mixed with RT2 SYBR Green Mastermix (Qiagen, Venlo). Successful PCR performance was confirmed by assay tests for genomic DNA contamination, RNA sample quality, as well as single melt curve determination and <35 Ct for each gene, leading to validated gene expression of 67 genes. Relative expression for each gene was determined, firstly by ∆CT calculated using the geometric mean of 4 housekeeping genes (ACTB, GAPDH, HPRT1, RPLP0), followed by 2^(-∆CT), and expressed as fold change to control, according to manufacturer’s guidance. IFN2α-induced ISGs in healthy donors were determined using a Student’s t-test (two-tail distribution and equal variances) on the triplicate fold change in 2^(-ΔCT) values between […]
donors). Heatmaps were generated using the “pheatmap” function in R (v4.0.2) and RStudio (v1.3.1093) applying row scaling to standardise the expression data across samples (R core team 2020.
R Foundation for Statistical Computing). The IFN2α inducible genes determined in healthy donors […]
171-C. To account for Type I IFN signalling heterogeneity across samples, the mean 2^(-∆CT) for each […]
relative gene expression, illustrated as a fold change and visualised in log2. The Type I IFN signalling array data for the patient samples is included in Source Data Figure 6, Extended Data Fig. 9.

[3] = unstimulated PBMCs from SSc patients, one value per patient (P1-P9)

Structure (SMILES): O=C(NC1CCNCC1)c1nn(C(=O)c2c(Cl)cccc2Cl)cc1NC(=O)c1c(Cl)cccc1Cl [JMS-175-2]
- IFNAR1 surface levels (Fig. 5h) ([1]; IFN + compound, No IFN = 100): 48.4567 and 45.7565 and 33.0649
- IFNAR1 surface levels ([1]; THP-1, hIFNα2 25 ng/ml, 4 μM, 16 h): reduction in IFNAR1 surface levels
- number of ISGs (of 34) reduced compared to AP-5-145 ([2]; SSc PBMCs (n = 9), 2 µM, 16 h): 22
- ADAR, Type I IFN signalling array raw data [2, 3]: 3.812 and 3.743 and 4.113 and 4.435 and 3.832 and 4.965 and 3.1007 and 4.473 and 4.363
- BST2, Type I IFN signalling array raw data [2, 3]: 2.634 and 3.889 and 3.072 and 2.87 and 3.494 and 3.795 and 4.633 and 2.6092 and 2.483
- CASP1, Type I IFN signalling array raw data [2, 3]: 1.213 and 2.812 and 2.398 and 2.039 and 1.156 and 2.52 and 2.747 and 2.114 and 1.958
- CD86, Type I IFN signalling array raw data [2, 3]: 3.228 and 5.906 and 3.901 and 5.361 and 5.149 and 4.521 and 6.493 and 4.685 and 4.196
- CXCL10, Type I IFN signalling array raw data [2, 3]: 8.71 and 7.706 and 4.205 and 4.635 and 4.659 and 4.1108 and 5.782 and 5.515 and 4.585
- DDX58, Type I IFN signalling array raw data [2, 3]: 2.743 and 2.94 and 3.022 and 3.298 and 2.839 and 3.98 and 3.519 and 2.665 and 2.269
- GBP1, Type I IFN signalling array raw data [2, 3]: 2.158 and 2.728 and 1.98 and 1.48 and 2.261 and 1.7592 and 1.143 and 2.383 and 0.7799
- IFI6, Type I IFN signalling array raw data [2, 3]: 2.425 and 3.947 and 3.076 and 2.468 and 2.755 and 3.753 and 4.379 and 1.895 and 1.403
- IFI16, Type I IFN signalling array raw data [2, 3]: 2.049 and 1.794 and 2.214 and 1.769 and 1.846 and 2.52 and 0.8721 and 1.744 and 1.344
- IFIH1, Type I IFN signalling array raw data [2, 3]: 4.067 and 4.072 and 3.5554 and 2.793 and 3.2049 and 5.377 and 3.587 and 3.865 and 3.376
- IFIT1, Type I IFN signalling array raw data [2, 3]: 6.813 and 5.481 and 4.387 and 3.431 and 4.758 and 6.993 and 4.645 and 3.607 and 3.511
- IFIT2, Type I IFN signalling array raw data [2, 3]: 3.877 and 4.276 and 4.33 and 2.588 and 4.403 and 4.745 and 2.229 and 3.19 and 2.838
- IFIT3, Type I IFN signalling array raw data [2, 3]: 4.821 and 4.968 and 3.571 and 2.478 and 4.365 and 4.923 and 2.496 and 2.53 and 2.343
- IFITM1, Type I IFN signalling array raw data [2, 3]: 1.018 and 0.9593 and 1.422 and 1.403 and 1.369 and 1.662 and 1.509 and 1.105 and 0.5587
- IFITM2, Type I IFN signalling array raw data [2, 3]: 4.116 and 4.7 and 5.192 and 4.824 (2×) and 4.737 and 4.678 and 5.159 and 5.095
- IFITM3, Type I IFN signalling array raw data [2, 3]: 2.916 and 4.165 and 3.837 and 2.08 and 3.733 and 4.352 and 4.508 and 1.719 and 2.211
- IRF1, Type I IFN signalling array raw data [2, 3]: 1.526 and 2.165 and 1.923 and 0.6715 and 1.654 and 1.161 and 1.159 and 2.105 and 0.7689
- IRF7, Type I IFN signalling array raw data [2, 3]: 5.385 and 5.096 and 5.885 and 3.925 and 5.478 and 5.126 and 4.9117 and 4.798 and 3.676
- IRF9, Type I IFN signalling array raw data [2, 3]: 1.63 and 2.363 and 2.229 and 1.688 and 2.545 and 2.717 and 2.001 and 1.778 and 1.074
- ISG15, Type I IFN signalling array raw data [2, 3]: 7.828 and 5.157 and 3.914 and 1.97 and 4.252 and 5.488 and 3.54 and 2.475 and 2.54
- ISG20, Type I IFN signalling array raw data [2, 3]: 2.454 and 3.36 and 3.266 and 3.42 and 2.95 and 3.395 and 3.115 and 4.07 and 2.362
- MX1, Type I IFN signalling array raw data [2, 3]: 4.39 and 3.317 and 4.478 and 2.343 and 4.002 and 5.299 and 4.681 and 3.297 and 2.96
- MX2, Type I IFN signalling array raw data [2, 3]: 4.119 and 3.616 and 4.1617 and 3.303 and 3.807 and 5.104 and 3.9466 and 3.181 and 2.652
- MYD88, Type I IFN signalling array raw data [2, 3]: 2.47 and 3.66 and 3.439 and 3.359 and 3.397 and 3.681 and 4.188 and 3.514 and 3.446
- NMI, Type I IFN signalling array raw data [2, 3]: 1.562 and 2.473 and 2.043 and 2.157 and 2.037 and 2.367 and 1.861 and 2.107 and 1.945
- OAS1, Type I IFN signalling array raw data [2, 3]: 3.9946 and 5.08 and 3.975 and 3.103 and 3.832 and 4.439 and 4.753 and 3.122 and 2.562
- OAS2, Type I IFN signalling array raw data [2, 3]: 4.012 and 3.3146 and 4.469 and 3.575 and 4.215 and 3.938 and 4.568 and 3.269 and 1.99
- PML, Type I IFN signalling array raw data [2, 3]: 3.464 and 4.0817 and 4.578 and 3.206 and 4.344 and 4.48 and 3.583 and 3.774 and 3.137
- SOCS1, Type I IFN signalling array raw data [2, 3]: 3.527 and 3.231 and 4.351 and 3.055 and 4.321 and 4.161 and 3.784 and 3.314 and 2.261
- STAT1, Type I IFN signalling array raw data [2, 3]: 0.658 and 1.171 and -0.3774 and -0.03547 and 0.5032 and 0.1577 and 0.4735 and 0.157 and -0.9535
- STAT2, Type I IFN signalling array raw data [2, 3]: 3.702 and 3.438 and 3.148 and 3.834 and 3.166 and 3.676 and 3.7416 and 3.178 and 2.42
- STAT3, Type I IFN signalling array raw data [2, 3]: 1.85 and 1.467 and 4.524 and 1.728 and 2.05 and 2.151 and 1.4 and 1.718 and 1.637
- TAP1, Type I IFN signalling array raw data [2, 3]: 1.739 and 1.988 and 2.594 and 1.8192 and 2.316 and 2.659 and 1.447 and 2.0534 and 1.014
- TNFSF10, Type I IFN signalling array raw data [2, 3]: 2.971 and 3.81 and 3.83 and 3.393 and 3.712 and 3.506 and 3.8599 and 3.839 and 2.706

Reference: article PMC7617869, “Molecular glues that inhibit deubiquitylase activity and inflammatory signaling” (Nature Structural & Molecular Biology, 2025)
